For three molecules, IC50 results are on record in US6610655B2, “Pentapeptide with specific conformation, its production and use” (Takeda Chemical Industries, Inc., priority 1994, dated 2003).

Where a SMILES comes first, the peptide text is derived from it. [ ]: non-standard residue; d: D form. The star is where a group is joined. Bn = c1ccc(C*)cc1

As a reminder, the IC50 is the midpoint of a concentration-inhibition curve. High values mean a need for much substance, low ones inhibition by little substance.

In this test the target is T1, NK2 receptor (Bos taurus, UniProt P05363).
T1 construct: membrane fraction containing the receptor was prepared from the inner wall of the bovine third stomach; tissue Kyoto Chuo Chikusan Fukuseibutsu Oroshi Kyokai; host or cells: inner wall of the bovine third stomach (membrane fraction)
T1 sequence (P05363 1-384): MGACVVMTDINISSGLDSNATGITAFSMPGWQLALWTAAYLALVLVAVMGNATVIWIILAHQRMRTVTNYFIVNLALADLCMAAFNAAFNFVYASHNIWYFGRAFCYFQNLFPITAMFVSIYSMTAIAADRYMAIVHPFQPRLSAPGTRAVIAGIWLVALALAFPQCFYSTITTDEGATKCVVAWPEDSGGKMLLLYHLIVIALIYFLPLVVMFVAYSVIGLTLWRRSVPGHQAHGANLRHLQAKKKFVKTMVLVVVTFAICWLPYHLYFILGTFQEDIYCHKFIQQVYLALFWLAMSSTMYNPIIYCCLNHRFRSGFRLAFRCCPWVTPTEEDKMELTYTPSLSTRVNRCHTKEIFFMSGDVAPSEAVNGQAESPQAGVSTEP
Description: Binding inhibiting activity on NK2 receptor (125I-NKA, membrane fraction of bovine third stomach). To be noted: 125I-neurokinin A, membrane fraction from inner wall of bovine third stomach, 25° C., 3 hours. The protocol: The method of Paul L. M. Van Giersbergen et al. [Proc. Natl. Acad. Sci. U.S.A., 88, 1661 (1991) was modified for this assay. The membrane fraction containing the receptor was prepared from the inner wall of the bovine third stomach (purchased from Kyoto Chuo Chikusan Fukuseibutsu Oroshi Kyokai).
The inner wall of the bovine third stomach stored at −80° C. was cut to 1 cm×1 cm or less, and disrupted in 3 liters/kg of 50 mM Tris-HCl buffer (pH 7.4) supplemented with 120 mM sodium chloride, 5 mM potassium chloride, 0.02% BSA and 5% sucrose, using a polytron homogenizer (Kinematika, Germany). Then, the disrupted product was centrifuged at 1,000×g for 10 minutes. The supernatant was further centrifuged at 45,000×g for 20 minutes. The precipitate was suspended in 200 ml of 50 mM Tris-HCl buffer (pH 7.4) supplemented with 300 mM potassium chloride, 10 mM ethylenediaminetetraacetic acid, 0.1 mM […] and 0.02% BSA, and gently stirred under ice cooling for 60 minutes. The suspension was centrifuged at 45,000×g for 20 minutes. The precipitate was washed with 200 ml of 50 mM Tris-HCl buffer (pH 7.4), and stored in the frozen state at −40° C. as a receptor sample.
This sample was suspended in a reaction buffer solution [50 mM Tris-HCl buffer (pH 7.4), 0.02% bovine serum albumin and 4 mM manganese chloride] so as to give a protein concentration of 0.7 mg/ml, and 100 μl thereof was used for reaction. A test sample and ^125I-NKA (0.61 KBq, ^125I-neurokinin A, 81.4 TBq/mmol, Du Pont/NEN Research Products, U.S.A.) were also added, and reacted in 0.2 ml of the reaction buffer solution at 25° C. for 3 hours. The reaction mixture was rapidly filtered through a glass filter (GF/B, Whatman, U.S.A.) using a cell harvester (Type 290PHD, Cambridge Technology Inc., U.S.A.) to terminate the reaction, and washed 3 times with 250 μl of 50 mM Tris-HCl buffer (pH 7.4) supplemented with 0.02% bovine serum albumin. The radioactivity left on the filter was measured with a gamma-ray counter. […]
Molecule `CC(C)C[C@@H]1NC(=O)[C@@H](CC(C)C)NC(=O)[C@H](Cc2c[nH]c3ccccc23)NC(=O)[C@@H](CC(=O)O)NC(=O)[C@@H](Cc2c[nH]c3ccccc23)NC1=O` [Cyclo(-D-Asp-Trp-D-Leu-Leu-D-Trp-)] (cyclo([dD]W[dL]L[dW])) showed an IC50 of 27 nM. `CC(C)C[C@@H]1NC(=O)[C@@H](CC(C)C)NC(=O)[C@H](COCc2ccccc2)NC(=O)[C@@H](CCC(=O)O)NC(=O)[C@@H](Cc2c[nH]c3ccccc23)NC1=O` [Cyclo(-D-Glu-Ser(Bzl)-D-Leu-Leu-D-Trp-)] (cyclo([dE]S(Bn)[dL]L[dW])) gave an IC50 of 580 nM. Against the preceding molecule, the IC50 is about 21-fold higher.

On to `CC(C)C[C@@H]1NC(=O)[C@@H](CC(C)C)NC(=O)[C@H]([C@@H](C)OCc2ccccc2)NC(=O)[C@@H](CCC(=O)O)NC(=O)[C@@H](Cc2c[nH]c3ccccc23)NC1=O` [Cyclo(-D-Glu-Thr(Bzl)-D-Leu-Leu-D-Trp-)] (cyclo([dE]T(Bn)[dL]L[dW])), for which the IC50 was determined as 1500 nM.
